Data as given in patent US20220401408A1, “COMPOSITIONS AND METHODS FOR RESCUING RETINAL AND CHOROIDAL STRUCTURE AND FUNCTION” (AUCKLAND UNISERVICES LIMITED, priority 2019, published 2022).

Tests used:
[1] = system: hyperglycemic rats; assay: ERG in hyperglycemic rat diabetic retinopathy model; assay type: in vivo, SD rats (spontaneously hyperglycemic strain)
Source text: (§1) Hyperglycemic Rat Diabetic Retinopathy Model—A spontaneously hyperglycemic strain of SD rats, which developed clinical signs of diabetic retinopathy within 4 weeks of birth were identified and isolated within the Vernon Jansen Animal Research Unit, Faculty of Medical and Health Sciences at the University of Auckland. The identification of these rats presenting with hyperglycemia and microaneurysms provided an opportunity to treat a complex, chronic disease model and assess the treatment effect based upon objective, measurable endpoints, despite lacking precise information on the etiology of the disease. Inbreeding was carried out over three generations and eyes were screened for abnormalities between 4-8 weeks of age. Additional information about these rats is presented as supplementary information. Glucose levels were tested in non-fasting rats (Lee J J, Yi H Y, Yang J W, Shin J S, Kwon J H, Kim C W. Characterization of streptozotocin-induced diabetic rats and pharmacodynamics of insulin formulations. Biosci Biotechnol Biochem. 2003; 67:2396-401) using a Freestyle Optium Glucometer (Abbott Laboratories Ltd., UK) and Freestyle Optium glucose strips.
(§2) Ten rats per group were the selected (10 normal SD and 10 hyperglycemic) grown to 5 weeks of age and assessed using OCT and ERG. The hyperglycemic rat group was then split into two subgroups of five, with one subgroup fed tonabersat once daily for 14 days from weeks 5 to 7 at a low dose level of 0.28 mg/kg in 0.5 g peanut butter, with the other subgroup fed 0.5 g peanut butter only. All animals were assessed again using ERG and OCT at 8 weeks of age before euthanizing animals and removing the eyes for immunohistochemical analysis. Data groups were randomized prior to the statistical comparison. In summary, normal SD and hyperglycemic rats were analyzed with OCT and ERG at 5 weeks of age; the hyperglycemic rats were then split into two groups and fed the vehicle or tonabersat for 14 days during weeks 6 and 7 of age. At week 8, animals were again assessed with ERG and OCT and tissues collected for immunohistochemical analysis. Four tonabersat-treated rats were, however, left until 3 months of age before final ERG and OCT and tissue collection.
Electroretinogram Recording—The procedure was performed as described previously. Vessey K A, Wilkinson-Berka J L, Fletcher E L. Characterization of retinal function and glial cell response in a mouse model of oxygen-induced retinopathy. J Comp Neurol. 2011; 519:506-27. Essentially, SD rats were dark-adapted overnight for 12-14 hours before the ERG recording. For the dry AMD, the ERG baseline was recorded for all groups before light damage and at time points after the light damage insult (24 hours, 1 week, 2 weeks and 3 months post intense light). For the DR model, ERGs were recorded at 5 weeks of age to compare normal SD and hyperglycemic rat retinal function. Tonabersat treated and vehicle control hyperglycemic rats were assessed again at 8 weeks of age. After dark adaptation, rats were anaesthetized by an intraperitoneal injection of a combination of ketamine (75 mg/kg, Parnell Technologies, New Zealand) and domitor (0.5 mg/kg, Pfizer, New Zealand). A dim red light generated by a light-emitting diode (λmax=650 nm) was used during manipulations of dark-adapted animals. The corneas were maintained hydrated with 1% carboxymethylcellulose sodium (Celluvisc, Allergan, USA) during ERG recording. Right and left eye ERGs were recorded using gold ring electrodes (Roland Consult Stasche & Finger GmbH, Germany). A U-shaped active electrode was kept in contact with the center of the cornea. […] Normal body temperature was maintained to avoid temperature-driven ERG amplitude fluctuation by placing animals on a 37° C. heated pad. Full-field ERG responses were elicited by a twin-flash ([…] stimulus interval) generated from a photographic flash unit (Nikon SB900 flash, Japan), via a Ganzfeld sphere. […]

[2] = system: hyperglycemic rats; assay: OCT in hyperglycemic rat diabetic retinopathy model (aneurysms, layer thickness); assay type: in vivo, SD rats (spontaneously hyperglycemic strain)
Source text: as §1, §2
Evans Blue Dye Assessment of Vessel Leak—To investigate whether micro- and macro-aneurysms in the hyperglycemic rat retinas (observed using OCT) reflect sites of vessel leak, rats were perfused at the age of 3 months with Evans Blue dye as previously described. Cai S, Yang Q, Hou M, Han Q, Zhang H, Wang J, et al. Alpha-Melanocyte-Stimulating Hormone Protects Early Diabetic Retina from Blood-Retinal Barrier Breakdown and Vascular Leakage via MC4R. Cell Physiol Biochem. 2018; 45:505-22. Briefly, Evans Blue dye (30 mg/ml; Sigma-Aldrich, USA) was dissolved in normal saline and filtered. The dye was delivered as an injection into the rat-tail vein of normal SD and hyperglycemic rats at 45 mg/kg and allowed to circulate for 2 hours. Eyes were enucleated while rats were under deep anesthesia and an intracardial injection of 3M KCl was then administered rapidly to euthanize the animals. The posterior segment cups were fixed whole in 4% paraformaldehyde for 30 min and the retinas removed and laid flat. Evans Blue was stimulated at 559 nm wavelength and visualized by its red fluorescence emission using Olympus FluoView FV1000 (Olympus Corporation, Tokyo, Japan). […]

[3] = 0.28 mg/kg once daily 14 days, week 8
[4] = 0.28 mg/kg once daily 14 days, week 8, p<0.001
[5] = 0.28 mg/kg once daily 14 days, week 8, p<0.01

- mixed ERG a-wave, maximum intensity ([1]; 0.28 mg/kg once daily 14 days, 8 weeks, untreated −370 V): -630 µV
- implicit times [1, 3]: not different
- mixed b-wave signals ([1]; 0.28 mg/kg once daily 14 days, week 8, all intensities, p<0.001): significantly recovered
- mixed ERG a-wave vs untreated ([1]; 0.28 mg/kg once daily 14 days, week 8, intensities 0.1-2.1 cd·s/m2, p<0.001): significantly higher
- rod PII amplitude [1, 4]: significantly recovered
- rod PIII amplitude [1, 4]: significantly recovered
- cone PII amplitude [1, 5]: significantly recovered
- summed OPs amplitude [1, 5]: significantly recovered
- mixed b-wave, maximum intensity ([1]; 0.28 mg/kg once daily 14 days, week 8, untreated controls 400 V): 700 µV
- retinal function compared to vehicle hyperglycemic rats ([1]; 0.28 mg/kg oral once daily 14 days (weeks 5 to 7), week 8): significantly recovered
SMILES: CC(=O)c1ccc2c(c1)[C@H](NC(=O)c1ccc(F)c(Cl)c1)[C@H](O)C(C)(C)O2 [tonabersat, N-[(3S,4S)-6-acetyl-3-hydroxy-2,2-dimethyl-3,4-dihydrochromen-4-yl]-3-chloro-4-fluorobenzamide]
- number and size of microaneurysms after treatment [2, 3]: differences
- retinal layer thickness (INL or ONL) or thickness of the choroid, treated vs untreated [2, 3]: no significant difference
- hyperreflective spot on OCT after treatment ([2]; 0.28 mg/kg once daily for 14 days, 8 weeks): barely visible
- clinical signs, including the presence of aneurysms ([2]; DR model, daily treatment for two weeks): reduced
- micro- and macro-aneurysms compared to placebo controls ([2]; oral, DR model): regression
